# Laboratory results as given in article PMC4292808 (Journal of Medicinal Chemistry, 2014).
# Key:
# [1] = In vivo pharmacokinetic studies; conditions: male, Swiss albino, mouse, plasma, iv, 1 mg/kg
# [2] = test system: signaling in Gen2.2 cells; experiment: CL097; type: cell-based; conditions: human Gen2.2 cells, 1 μM, 1 h pretreatment
# [3] = test system: phosphorylation of IKKα/β and degradation of IκB-α in L929 cells; experiment: TNFα-induced NF-κB signaling, Western blot; type: cell-based, mouse
# TAK1 [4] = biological target: T1, TAK1 (Homo sapiens, UniProt O43318); experiment: biochemical
# T1 sequence (O43318 1-303 limits assumed): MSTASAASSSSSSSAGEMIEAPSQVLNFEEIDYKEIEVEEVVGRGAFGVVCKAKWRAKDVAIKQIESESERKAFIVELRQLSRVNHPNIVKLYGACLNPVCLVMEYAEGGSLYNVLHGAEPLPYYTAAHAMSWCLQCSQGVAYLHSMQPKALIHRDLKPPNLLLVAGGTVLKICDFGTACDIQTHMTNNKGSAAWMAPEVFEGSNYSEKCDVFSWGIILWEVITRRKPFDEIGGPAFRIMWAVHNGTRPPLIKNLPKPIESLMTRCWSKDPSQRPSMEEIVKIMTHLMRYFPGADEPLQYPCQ
# [5] = test system: phosphorylation of p105, p38 and JNK1/2 in 293 IL-1R cells; experiment: IL-1α-induced signaling, Western blot; type: cell-based; conditions: human 293 IL-1R cells stimulated with IL-1α
# [6] = test system: phosphorylation of p105, p38 and JNK1/2 in MEFs; experiment: IL-1α-induced signaling, Western blot; type: cell-based, mouse; conditions: MEFs stimulated with IL-1α
# [7] = test system: phosphorylation of p38 MAPK in TAK1-deficient MEFs; experiment: IL-1 and TGFβ-induced signaling in TAK1-deficient MEFs, Western blot; type: cell-based, mouse; conditions: 500 nM
# [8] = test system: phosphorylation of p38 MAPK and SMAD2 in WT MEFs; type: cell-based, mouse; conditions: WT and TAK1-deficient MEFs
# p38α = p38α (Homo sapiens, UniProt Q16539); experiment: SelectScreen enzymatic assay; type: biochemical; conditions: KiNativ and enzymatic assays, in words
# Sequence of p38α (Q16539 whole entry): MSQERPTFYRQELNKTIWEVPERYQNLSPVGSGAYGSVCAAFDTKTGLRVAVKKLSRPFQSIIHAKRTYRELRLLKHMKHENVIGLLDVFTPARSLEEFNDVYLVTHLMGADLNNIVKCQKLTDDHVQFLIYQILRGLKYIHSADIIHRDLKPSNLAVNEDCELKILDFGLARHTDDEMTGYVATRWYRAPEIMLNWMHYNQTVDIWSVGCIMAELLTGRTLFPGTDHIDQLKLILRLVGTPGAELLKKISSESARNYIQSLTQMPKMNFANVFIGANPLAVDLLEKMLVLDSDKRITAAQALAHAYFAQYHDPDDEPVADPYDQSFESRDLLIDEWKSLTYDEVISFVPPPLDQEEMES
# [9] = test system: BCR-ABL-dependent Ba/F3 cells; experiment: Ba/F3 cell proliferation assay; type: cell-based; conditions: Mus musculus, BaF3, read-out: cell growth inhibition
# MAP4K2 = biological target: T2, MAP4K2 (Homo sapiens, UniProt Q12851); experiment: KiNativ HUH7 lysate; type: binding; conditions: in words
# T2 sequence (Q12851 1-820): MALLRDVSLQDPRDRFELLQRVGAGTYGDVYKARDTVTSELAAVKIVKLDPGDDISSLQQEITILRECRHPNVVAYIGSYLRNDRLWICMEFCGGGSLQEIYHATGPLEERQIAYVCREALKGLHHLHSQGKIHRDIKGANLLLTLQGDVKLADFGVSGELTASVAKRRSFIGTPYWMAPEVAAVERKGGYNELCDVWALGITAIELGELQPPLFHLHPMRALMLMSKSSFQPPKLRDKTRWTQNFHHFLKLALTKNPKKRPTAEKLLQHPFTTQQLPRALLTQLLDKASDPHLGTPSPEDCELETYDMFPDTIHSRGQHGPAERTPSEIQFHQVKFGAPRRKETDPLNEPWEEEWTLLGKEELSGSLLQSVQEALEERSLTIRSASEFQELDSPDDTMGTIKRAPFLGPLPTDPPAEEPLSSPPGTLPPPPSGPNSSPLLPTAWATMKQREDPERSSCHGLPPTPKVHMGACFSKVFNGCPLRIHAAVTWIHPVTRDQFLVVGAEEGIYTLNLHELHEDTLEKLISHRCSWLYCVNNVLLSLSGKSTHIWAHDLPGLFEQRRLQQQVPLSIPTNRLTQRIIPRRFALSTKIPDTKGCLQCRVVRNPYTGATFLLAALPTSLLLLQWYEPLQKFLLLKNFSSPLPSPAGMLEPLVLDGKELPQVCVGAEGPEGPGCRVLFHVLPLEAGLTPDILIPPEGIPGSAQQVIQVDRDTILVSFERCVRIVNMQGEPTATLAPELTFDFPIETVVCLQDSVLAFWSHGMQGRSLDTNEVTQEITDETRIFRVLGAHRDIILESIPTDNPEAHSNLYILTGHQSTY
# TAK1 [10] = biological target: T3, TAK1 (Homo sapiens, UniProt O43318); experiment: KiNativ HUH7 lysate; type: binding; conditions: in words
# T3 sequence (O43318 1-606): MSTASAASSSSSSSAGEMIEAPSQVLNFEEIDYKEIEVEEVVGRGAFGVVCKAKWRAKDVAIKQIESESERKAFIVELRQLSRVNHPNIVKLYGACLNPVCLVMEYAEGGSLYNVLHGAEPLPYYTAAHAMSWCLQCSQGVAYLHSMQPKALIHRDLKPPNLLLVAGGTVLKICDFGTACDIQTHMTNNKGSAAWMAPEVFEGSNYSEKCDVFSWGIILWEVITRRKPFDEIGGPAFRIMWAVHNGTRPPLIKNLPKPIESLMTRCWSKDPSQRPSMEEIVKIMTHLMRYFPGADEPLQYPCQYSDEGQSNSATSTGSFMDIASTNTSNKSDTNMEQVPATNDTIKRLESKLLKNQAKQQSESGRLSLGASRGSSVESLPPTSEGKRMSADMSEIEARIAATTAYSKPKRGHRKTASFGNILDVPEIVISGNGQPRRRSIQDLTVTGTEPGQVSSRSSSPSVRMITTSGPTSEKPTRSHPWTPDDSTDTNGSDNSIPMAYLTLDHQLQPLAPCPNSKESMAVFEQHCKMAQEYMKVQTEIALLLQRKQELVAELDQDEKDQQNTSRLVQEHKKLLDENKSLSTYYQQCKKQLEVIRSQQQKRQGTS
# [11] = 100 nM, 30 min pretreatment, TNFα 5 min, Western blot
smiles,measurement,setting,value
CCN1CCN(Cc2ccc(NC(=O)c3ccc(C)c(Oc4ncnc5[nH]c(C)cc45)c3)cc2C(F)(F)F)CC1 [Compound 5],clearance at 24 h,[1],26.5 mL/min/kg
CCN1CCN(Cc2ccc(NC(=O)c3ccc(OC)c(Oc4ncnc5[nH]ccc45)c3)cc2C(F)(F)F)CC1 [S1],CL097-induced signaling,[2],only partially inhibited signaling
"CCN1CCN(Cc2ccc(NC(=O)c3ccc(C)c(Oc4ccnc5[nH]ccc45)c3)cc2C(F)(F)F)CC1 [Compound 1, 3-((1H-Pyrrolo[2,3-b]pyridin-4-yl)oxy)-N-(4-((4-ethylpiperazin-1-yl)methyl)-3-(trifluoromethyl)phenyl)-4-methylbenzamide]",effect on TNFα-induced phosphorylation of IKKα/β and degradation of IκB-α,[3]; [11],comparable cellular potency
same,IC50,TAK1 [4],15 nM
same,"phosphorylation levels of p105, p38 and JNK1/2",[5],inhibited in a dose-dependent manner
same,"phosphorylation levels of p105, p38 and JNK1/2",[6],inhibited in a dose-dependent manner
same,CL097-induced signaling,[2],blocked signaling
same,half-life,[1],120 min
CNc1cc(Oc2cc(C(=O)Nc3cc(N4CCN(C)CC4)cc(C(F)(F)F)c3)ccc2C)ncn1 [Compound 17],effect on TNFα-induced phosphorylation of IKKα/β and degradation of IκB-α,[3]; [11],no effect
same,effect on TNFα-induced phosphorylation of IKKα/β and degradation of IκB-α,[3]; concentrations up to 1 μM,not very effective
same,IL-1-induced phosphorylation of p38,[7],complete inhibition
same,IL-1 and TGFβ-induced p38 MAPK phosphorylation,[8],dose-dependent inhibition
same,TGFβ-induced phosphorylation of SMAD2,[8],did not inhibit
"C[S+]([O-])c1ccc(-c2nc(-c3ccc(F)cc3)c(-c3ccncc3)[nH]2)cc1 (centres unmarked) [Compound 38, SB203580, reference compound]",effect on TNFα-induced phosphorylation of IKKα/β and degradation of IκB-α,[3]; [11],no effect
CNc1cc(Oc2cc(C(=O)Nc3cc(-n4cnc(C)c4)cc(C(F)(F)F)c3)ccc2C)ncn1 [Compound 16],effect on TNFα-induced phosphorylation of IKKα/β and degradation of IκB-α,[3]; [11],no effect
same,CL097-induced signaling,[2],not able to block
same,IL-1-induced phosphorylation of p38,[7],complete inhibition
same,IL-1 and TGFβ-induced p38 MAPK phosphorylation,[8],dose-dependent inhibition
same,TGFβ-induced phosphorylation of SMAD2,[8],did not inhibit
CCN1CCN(Cc2ccc(NC(=O)c3ccc(C)c(Oc4ncnc5[nH]ccc45)c3)cc2C(F)(F)F)CC1 [Compound 3],clearance at 24 h,[1],65.8 mL/min/kg
CCN1CCN(Cc2ccc(NC(=O)c3cccc(CCc4cnc5[nH]ccc5c4OC)c3)cc2C(F)(F)F)CC1 [Compound 23],activity against p38α,p38α,inactive
"COc1cc(O)c2c(c1)/C=C/C[C@H](O)[C@H](O)C(=O)/C=C\C[C@H](C)OC2=O [Compound 37, 5Z-7-oxozeaenol, reference compound]",TGFβ-induced phosphorylation of SMAD2,[8],inhibited phosphorylation of both p38 and SMAD2
"CCN1CCN(Cc2ccc(NC(=O)c3ccc(C)c(/C=C/c4cnc5[nH]ccc5c4OC)c3)cc2C(F)(F)F)CC1 [Compound 2, (E)-N-(4-((4-Ethylpiperazin-1-yl)methyl)-3-(trifluoromethyl)phenyl)-3-(2-(4-methoxy-1H-pyrrolo[2,3-b]pyridin-5-yl)vinyl)-4-methylbenzamide]",effect on TNFα-induced phosphorylation of IKKα/β and degradation of IκB-α,[3]; [11],comparable cellular potency
same,inhibition at 0.01 µM,[9],> 50%
Cc1cn(-c2cc(NC(=O)c3ccc(C)c(Oc4ccnc5[nH]ccc45)c3)cc(C(F)(F)F)c2)cn1 [Compound 12],effect on TNFα-induced phosphorylation of IKKα/β and degradation of IκB-α,[3]; [11],no effect
CCN1CCN(Cc2ccc(NC(=O)c3cccc(/C=C/c4cnc5[nH]ccc5c4OC)c3)cc2C(F)(F)F)CC1 [Compound 24],activity against p38α,p38α,inactive
CCN1CCN(Cc2ccc(NC(=O)c3ccc(C)c(Oc4ccnc(C(=O)NC)c4)c3)cc2C(F)(F)F)CC1 [Compound 9],activity against MAP4K2,MAP4K2,inactive
same,activity against TAK1,TAK1 [10],inactive
CCN1CCN(Cc2ccc(NC(=O)c3cccc(Oc4ccnc5[nH]ccc45)c3)cc2C(F)(F)F)CC1 [Compound 10],inhibition at 0.01 µM,[9],> 50%
"CNC(=O)c1ccc(C)c(-n2c(C)cc(OCc3ccc(F)cc3F)c(Br)c2=O)c1 [Compound 39, PH-797804, reference compound]",effect on TNFα-induced phosphorylation of IKKα/β and degradation of IκB-α,[3]; [11],no effect
CCN1CCN(Cc2ccc(NC(=O)c3ccc(C)c(Oc4ncnc5[nH]ncc45)c3)cc2C(F)(F)F)CC1 [Compound 4],clearance at 24 h,[1],99.2 mL/min/kg
CCN1CCN(Cc2ccc(C(=O)Nc3ccc(C)c(Oc4ccnc5[nH]ccc45)c3)cc2C(F)(F)F)CC1 [Compound 11],effect on TNFα-induced phosphorylation of IKKα/β and degradation of IκB-α,[3]; [11],no effect
